Values of other authors in patent publication US7012096B2, “Composition for pain mediation and apparatus and method of use thereof” (Palladin Healthcare International, Inc., priority 1998, dated 2006).

Key:
human keratinocytes = details: in vitro tissue culture
human fibroblasts = details: in vitro tissue culture

Question: For `CC(=O)O` [acetic acid], which “Concentration toxic to human keratinocytes” value (human keratinocytes) is on record?
Answer: The value was “above 0.025%”.

Question: And the “Concentration toxic to human fibroblasts” value (human fibroblasts)?
Answer: Its value is “above 0.025%”.
